The values that follow come from the NIST ThermoML archive (doi:10.1021/je100912t).

For data set [1] the following is noted: Liquid; for mass density: 298.15 K, 101.33 kPa, Pycnometric method; for vapor or sublimation pressure: Ebulliometric method (Recirculating still).
Data set [2] is described as follows: refractive index (Na D-line) (dimensionless). The note with it: 298.15 K; 101.33 kPa; Liquid; Standard Abbe refractometry.

Numbers after ± are expanded uncertainties.

On to `CCCO` [propan-1-ol], for which the mass density in data set [1] worked out at 803.62 ± 0.71 kg/m3. Also, the “vapor or sublimation pressure” value in data set [1] (370.27 K) amounted to 101.33 ± 1 kPa. The refractive index in data set [2] is on record as 1.3856 ± 0.0004.

With `CCC=O` [propanal], the mass density in data set [1] stood at 797.21 ± 0.7 kg/m3. The “vapor or sublimation pressure” value in data set [1] (321.18 K) turned out to be 101.33 ± 1 kPa. In addition, in data set [2], the refractive index stood at 1.3634 ± 0.0004.

For `CCC(=O)O` [propanoic acid], the mass density in data set [1] was 992.86 ± 0.88 kg/m3. Further, the “vapor or sublimation pressure” value in data set [1] (412.91 K) is 101.33 ± 1 kPa. Besides, the refractive index in data set [2] was found to be 1.3858 ± 0.0004.
